Data published in article PMC8041284, “Tunable Methacrylamides for Covalent Ligand Directed Release Chemistry” (Journal of the American Chemical Society, 2021).
Where two headings read alike, the source gives them in different places.

Target: BTK (Homo sapiens, UniProt Q06187)
Test: biochemical
[1] = read-out: BTK inhibition (%), 0.75 uM BTK, […] probe 3l, 15 min preincubation

BTK, sequence (Q06187 402-655 limits assumed): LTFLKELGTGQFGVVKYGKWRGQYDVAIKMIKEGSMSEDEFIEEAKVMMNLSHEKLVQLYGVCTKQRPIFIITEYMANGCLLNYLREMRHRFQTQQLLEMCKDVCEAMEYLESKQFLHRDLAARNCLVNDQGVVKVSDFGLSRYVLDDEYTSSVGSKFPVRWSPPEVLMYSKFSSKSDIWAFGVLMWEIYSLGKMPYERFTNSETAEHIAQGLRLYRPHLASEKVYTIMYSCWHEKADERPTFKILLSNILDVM

Cc1ccc(O)c(O)c1 [PCM-0216565]
inhibition at 10 µM [1]: 6.2%

C=C1[C@H]2C[C@@]3([C@@H]1O)[C@@H](CC2=O)[C@]12[C@@H]4C[C@H]3[C@H]1N(CC)C[C@]4(C)CC[C@@H]2O [PCM-0216364]
inhibition at 10 µM [1]: 19.3%

CC(Nc1nc(N2CCCC2)nc2ccccc12)c1ccccc1 (stereo not shown) [PCM-0215774]
inhibition at 10 µM [1]: -23.2%

O=C(Nc1ccc(OC(F)(F)F)cc1)c1sccc1NCc1ccnc2ccccc12 [PCM-0094951]
inhibition at 10 µM [1]: 90.3%

O=C(O)c1cc(C(=O)O)c2c(n1)C(=O)C(=O)c1cc(C(=O)O)[nH]c1-2 [PCM-0216638]
inhibition at 10 µM [1]: -0.8%

C[C@@H]1C(=O)O[C@H]2[C@@H](O)[C@@]34[C@H]5C[C@@H](C(C)(C)C)[C@]36[C@@H](OC(=O)[C@@H]6O)O[C@@]4(C(=O)O5)[C@@]12O [PCM-0214615]
inhibition at 10 µM [1]: 16.3%

Cc1cnc(C(=O)NCCc2ccc(S(=O)(=O)NC(=O)NC3CCCCC3)cc2)cn1 [PCM-0065278]
inhibition at 10 µM [1]: 13.2%

COc1cc(N2CCC(N)CC2)ccc1Nc1ncc(Cl)c(-c2c[nH]c3ccccc23)n1 [PCM-0215211]
inhibition at 10 µM [1]: 95.9%

COc1cc2c(=O)c(-c3ccc(O)cc3)coc2cc1O [PCM-0216399]
inhibition at 10 µM [1]: 6.2%

COc1cc(O)c(C(=O)c2ccccc2)cc1S(=O)(=O)O [PCM-0214826]
inhibition at 10 µM [1]: -1.6%

C=C1CCC[C@]2(C)C[C@@H]3OC(=O)C(C)=C3C[C@@H]12 [PCM-0216545]
inhibition at 10 µM [1]: -38.6%

CC1=C(C(=O)Nc2cc3cn[nH]c3cc2F)C(c2ccc(C(F)(F)F)cc2)CC(=O)N1 (stereo not shown) [PCM-0095153]
inhibition at 10 µM [1]: 48.3%

CCC1(c2cccc(O)c2)CCCCN(C)C1 (stereo not shown) [PCM-0086257]
inhibition at 10 µM (read-out: BTK inhibition (%)): 7.8%

CCN1C[C@]2(COC)CC[C@H](OC)[C@]34C1[C@H]([C@H](OC)[C@H]23)[C@@]1(OC(C)=O)C[C@H](OC)[C@@]2(O)C[C@@H]4[C@@H]1[C@H]2OC(=O)c1ccc(OC)cc1 [PCM-0216304]
inhibition at 10 µM (read-out: BTK inhibition (%)): -17%

CC[C@@H]([C@H](C)O)n1ncn(-c2ccc(N3CCN(c4ccc(OC[C@@H]5CO[C@@](Cn6cncn6)(c6ccc(F)cc6F)C5)cc4)CC3)cc2)c1=O [PCM-0214608]
inhibition at 10 µM [1]: 4.7%

C[C@H](CN(C)C)Oc1nc(Nc2cc3cccc(Cl)c3cn2)cnc1C#N [PCM-0215773]
inhibition at 10 µM [1]: -3.4%

Cn1cnc(-c2cc3nccc(Oc4ccc(NC(=S)NC(=O)Cc5ccccc5)cc4F)c3s2)c1 [PCM-0094974]
inhibition at 10 µM [1]: -6.9%

C[C@H]1C[C@H]2[C@@H]3CCC4=CC(=O)C=C[C@]4(C)[C@@]3(F)[C@@H](O)C[C@]2(C)[C@@]1(O)C(=O)CO [PCM-0214629]
inhibition at 10 µM [1]: -6.2%

C[C@]1(c2nc3c(C(N)=O)cccc3[nH]2)CCCN1 [PCM-0094885]
inhibition at 10 µM [1]: -6.2%

Nc1nc(Cl)nc2c1ncn2[C@H]1C[C@H](O)[C@@H](CO)O1 [PCM-0086228]
inhibition at 10 µM [1]: -16.6%

CN[C@@H](C)C(=O)N[C@H](C(=O)N1CCC[C@H]1C(=O)Nc1snnc1-c1ccccc1)C1CCCCC1 [PCM-0215217]
inhibition at 10 µM [1]: -17%

O=C(Nc1cccc(C(F)(F)F)c1)c1cccc2cc(Oc3cc(CO)ncn3)ccc12 [PCM-0215724]
inhibition at 10 µM [1]: -0.7%

Cc1ccnc(NS(=O)(=O)c2ccc(N)cc2)n1 [PCM-0086511]
inhibition at 10 µM [1]: 1.6%

CCCC(CCC)C(=O)OC1C[C@H]2CC[C@@H](C1)[N+]2(C)C (stereo partly shown) [PCM-0215249]
inhibition at 10 µM [1]: -37.4%

C[C@@]12CC[C@@H]3[C@@](CC[C@H]4[C@@]3(C)CCC[C@@]4(C)C(=O)O)(CC1=O)C2 [PCM-0215049]
inhibition at 10 µM [1]: -16.3%

Cc1nc2ccc(-n3ncc(C(=O)c4cc5ccccc5[nH]4)c3N)cc2[nH]1 [PCM-0215439]
inhibition at 10 µM [1]: 44.8%

C[C@H](CC[C@@H](O[C@@H]1O[C@H](CO[C@@H]2O[C@H](CO)[C@@H](O)[C@H](O)[C@H]2O)[C@@H](O)[C@H](O)[C@H]1O[C@@H]1O[C@H](CO)[C@@H](O)[C@H](O)[C@H]1O)C(C)(C)O)[C@H]1CC[C@@]2(C)[C@@H]3CC=C4[C@@H](CC[C@H](O[C@@H]5O[C@H](CO[C@@H]6O[C@H](CO)[C@@H](O)[C@H](O)[C@H]6O)[C@@H](O)[C@H](O)[C@H]5O)C4(C)C)[C@]3(C)[C@H](O)C[C@]12C [PCM-0214952]
inhibition at 10 µM [1]: -2.3%

CC1(C)CC(=O)c2c(C(F)(F)F)nn(-c3ccc(C(N)=O)c(NC4CCC(O)CC4)c3)c2C1 (stereo not shown) [PCM-0214567]
inhibition at 10 µM [1]: -36.6%

CN(c1ccccc1CNc1nc(Nc2ccc3c(c2)CC(=O)N3)ncc1C(F)(F)F)S(C)(=O)=O [PCM-0215410]
inhibition at 10 µM [1]: 91.7%

CNC(=O)c1ccc(C)c(-n2c(C)cc(OCc3ccc(F)cc3F)c(Br)c2=O)c1 [PCM-0095443]
inhibition at 10 µM [1]: -14.5%

Cc1cc(Nc2ncc3c(n2)N(C)C(=O)N(c2cc(NC(=O)c4cccc(C(F)(F)F)c4)ccc2C)C3)n(C)n1 [PCM-0215636]
inhibition at 10 µM [1]: 104%

CC1(C)[C@@H]2CC[C@@]1(C)[C@@H](O)C2 [PCM-0214946]
inhibition at 10 µM [1]: 3.1%

Cc1cc(=O)oc2c([N+](=O)[O-])c(O)ccc12 [PCM-0216627]
inhibition at 10 µM [1]: 13.1%

OC[C@@H](O)[C@@H](O)[C@@H](O)[C@@H](O)CO [PCM-0216285]
inhibition at 10 µM [1]: -17%

Cc1cccc(C)c1OCC(=O)N[C@@H](Cc1ccccc1)[C@@H](O)C[C@H](Cc1ccccc1)NC(=O)[C@H](C(C)C)N1CCCNC1=O [PCM-0214618]
inhibition at 10 µM [1]: -21.8%

CNc1nc(-c2ccc3c(N)n[nH]c3c2)cc(N2C[C@@H](C(=O)NC3CCCCC3)CC[C@H]2C)n1 [PCM-0095768]
inhibition at 10 µM [1]: 24.1%

CC[C@@H]1CN2CC[C@@]3(C(=O)Nc4ccccc43)[C@@H]2C[C@@H]1/C(=C\OC)C(=O)OC [PCM-0216594]
inhibition at 10 µM [1]: -15.4%

O[C@@H](c1cc(C(F)(F)F)nc2c(C(F)(F)F)cccc12)[C@H]1CCCCN1 [PCM-0214801]
inhibition at 10 µM [1]: -4.7%

O=C[C@H](O)[C@H]1OC(=O)[C@@H](O)[C@H]1O [PCM-0215140]
inhibition at 10 µM [1]: -1.4%

COc1ccc(S(=O)(=O)Nc2cccnc2Nc2ccc(O)cc2)cc1 [PCM-0095016]
inhibition at 10 µM [1]: -14.5%

C[C@H](CS)C(=O)N1CCC[C@H]1C(=O)O [PCM-0064658]
inhibition at 10 µM [1]: -2.3%

COc1cc2oc(-c3ccc(O)cc3)cc(=O)c2c(O)c1[C@@H]1O[C@H](CO)[C@@H](O)[C@H](O)[C@H]1O[C@@H]1O[C@H](CO)[C@@H](O)[C@H](O)[C@H]1O [PCM-0216416]
inhibition at 10 µM [1]: -15.4%

Cc1sc2c(c1C)C(c1ccc(Cl)cc1)=N[C@@H](CC(=O)Nc1ccc(O)cc1)c1nnc(C)n1-2 [PCM-0095727]
inhibition at 10 µM [1]: 3.1%

COC(=O)C1=CO[C@@H](O[C@@H]2O[C@H](CO)[C@@H](O)[C@H](O)[C@H]2O)[C@@H]2[C@@]3(C)O[C@H]3[C@@H](O)[C@]12O [PCM-0216309]
inhibition at 10 µM [1]: -0.8%

CN(C)CCC[C@@]1(c2ccc(F)cc2)OCc2cc(C#N)ccc21 [PCM-0064474]
inhibition at 10 µM [1]: -6.2%

O=C(O)CCCCC(CCSCc1ccccc1)SCc1ccccc1 (stereo not shown) [PCM-0095341]
inhibition at 10 µM [1]: -39.7%

CCCCCCOC(=O)NC(=N)c1ccc(NCc2nc3cc(C(=O)N(CCC(=O)OCC)c4ccccn4)ccc3n2C)cc1 [PCM-0214664]
inhibition at 10 µM [1]: -14%

CCCOc1ccc2c(c1)CC[C@@H]1[C@@H]2CC[C@]2(C)[C@@H](OC)CC[C@@H]12 [PCM-0214906]
inhibition at 10 µM [1]: -24.1%

CC(C)C(=O)OCC(=O)[C@@]12O[C@H](C3CCCCC3)O[C@@H]1C[C@H]1[C@@H]3CCC4=CC(=O)C=C[C@]4(C)[C@H]3[C@@H](O)C[C@@]12C [PCM-0214834]
inhibition at 10 µM [1]: -6.9%

CCN1CCN(C(=O)N[C@@H](C(=O)N[C@@H]2C(=O)N3C(C(=O)O)=C(CSc4nnnn4C)CS[C@H]23)c2ccc(O)cc2)C(=O)C1=O [PCM-0085943]
inhibition at 10 µM [1]: -12.5%

CN=C(NC#N)NCCSCc1nc[nH]c1C [PCM-0214655]
inhibition at 10 µM [1]: -12.4%

C[C@]12CCC(=O)C=C1[C@@H]1C[C@@H]1[C@H]1[C@@H]3[C@@H]4C[C@@H]4[C@@]4(CCC(=O)O4)[C@@]3(C)CC[C@@H]12 [PCM-0214617]
inhibition at 10 µM [1]: -15.6%

C[C@H]1[C@H](C)CC[C@]2(C(=O)O)CC[C@]3(C)C(=CC[C@@H]4[C@@]5(C)C[C@@H](O)[C@H](O)C(C)(C)[C@@H]5CC[C@]43C)[C@H]12 [PCM-0216596]
inhibition at 10 µM [1]: 6.2%

CC(C)[C@H](N)C(=O)OCC(CO)OCn1cnc2c(=O)[nH]c(N)nc21 (stereo partly shown) [PCM-0214750]
inhibition at 10 µM [1]: -2.3%

Cc1c(N[C@@H](c2nnc(-c3ccc(C#N)cc3)o2)[C@H](C)O)ccc(C#N)c1Cl [PCM-0216075]
inhibition at 10 µM (read-out: BTK inhibition (%)): 17.8%

O=c1cc(-c2ccc(O)cc2)oc2c([C@@H]3OC[C@H](O)[C@H](O)[C@H]3O)c(O)c([C@@H]3O[C@H](CO)[C@@H](O)[C@H](O)[C@H]3O)c(O)c12 [PCM-0216486]
inhibition at 10 µM [1]: -13.9%

C/C=C(/C)C(=O)O[C@H]1c2cc(OC)c(OC)c(OC)c2-c2c(cc3c(c2OC)OCO3)C[C@H](C)[C@]1(C)O [PCM-0216333]
inhibition at 10 µM [1]: -25.5%

COc1cc(CCc2cc(NC(=O)c3ccc(N4C[C@@H](C)N[C@@H](C)C4)cc3)n[nH]2)cc(OC)c1 [PCM-0095396]
inhibition at 10 µM [1]: 58.6%

O=c1[nH]c(=O)n([C@H]2C[C@H](O)[C@@H](CO)O2)cc1I [PCM-0085786]
inhibition at 10 µM [1]: -27.2%

CC(c1cc2ccccc2s1)N(O)C(N)=O (stereo not shown) [PCM-0086421]
inhibition at 10 µM [1]: -0.7%

Cc1nn(C)c(COc2ccc(N3CCN(S(=O)(=O)N(C)C)CC3)cc2)c1-c1cccc2c(CCCOc3cccc4ccccc34)c(C(=O)O)n(CCN3CCOCC3)c12 [PCM-0215538]
inhibition at 10 µM [1]: 5.1%

Cc1cc(O)c2c(c1)C(=O)c1cccc(O)c1C2=O [PCM-0090919]
inhibition at 10 µM [1]: -4.8%

COc1ccc2cc1Oc1ccc(cc1)C[C@H]1c3c(cc4c(c3Oc3cc5c(cc3OC)CCN(C)[C@@H]5C2)OCO4)CCN1C [PCM-0214760]
inhibition at 10 µM [1]: 30.4%

CCOC(=O)c1ccc(O)c(OC)c1 [PCM-0215087]
inhibition at 10 µM [1]: -7.8%

C[C@@H]1C(=O)O[C@H]2[C@H](O)[C@]34[C@@H]5OC(=O)[C@]3(O[C@@H]3OC(=O)[C@H](O)[C@@]34[C@H](C(C)(C)C)[C@H]5O)[C@@]12O [PCM-0215011]
inhibition at 10 µM (read-out: BTK inhibition (%)): 5.4%

COC(=O)c1cc(OC)c2c(c1-c1c(C(=O)OC)cc(OC)c3c1OCO3)OCO2 [PCM-0216065]
inhibition at 10 µM [1]: 2.8%

Cc1ccc(O)c([C@H](CCN(C(C)C)C(C)C)c2ccccc2)c1 [PCM-0095328]
inhibition at 10 µM [1]: 1.6%
